Results published in patent US20100120679A1, “Targeting NBS1-ATM Interaction To Sensitize Cancer Cells To Radiotherapy And Chemotherapy” (SOUTHERN RESEARCH INSTITUTE, priority 2006, published 2010).
Peptide text beside a SMILES is read from it. * marks the point of attachment. Biotin = O=C1N[C@H]2[C@H](CS[C@H]2CCCCC(=O)*)N1

How the values were obtained:
[1] = test system: prostate cancer cell line DU-145; assay: Colony formation assay (radiosensitivity), DU-145; format: cell-based, human
Method: Colony number was determined with a dissecting microscope. […] The following formula was used: […]
Radiation survival curves were characterized based on Do to define the effect of NIP effect on radiosensitivity. D0 represents the mean lethal dose required for 37% survival and is a measure of the intrinsic radiosensitivity of the cell. D0 values for HeLa treated with wtNIP were 1.9 compared with 3.0 for cells treated with scNIP. To establish the statistical significance of wtNIP-induced radiosensitivity, Student's t test (paired two-sample for means) was incorporated. […] Significant differences (p<0.05) in clonogenic survival were observed between cells treated with wtNIP and those treated with DMEM, R9, or scNIP. The SER was 1.58. […] These observations have been confirmed in the prostate cancer cell line DU-145 with an SER of 1.46. Taken as a whole, they provide strong evidence for the radiosensitizing potential of the wtNIP peptide.

HeLa cells = assay: Length of time the peptides remain in cells (degradation, immunofluorescence)
Method: HeLa cells were treated with 10 μM R9, wtNIP, or scNIP for one hour and harvested at indicated time points before they were analyzed by immunofluorescence microscopy staining with an […].
Immunofluorescence microscopy: Exponentially growing cultures of cells were plated on sterile, […] coverslips, and incubated for 24 hours at 37° C. in 5% CO2 humidified air before they are treated with the NIP peptides at room temperature. Coverslips were washed with PBS and fixed with 4% paraformaldehyde-0.25% Triton X-100 for 15 minutes at room temperature, blocked for 30 minutes at room temperature, and incubated with FITC-conjugated streptavidin or anti-γH2AX and phospho-NBS1 antibodies (Rockland Immunochemicals, Gilbertsville, Pa.) for 1 hour at room temperature. Coverslips were then mounted with Vectashield Elite (Vector Labs, Burlingame, Calif.) and observed with a Leica fluorescence microscope. Images were captured at 40× magnification using a Q Imaging Retiga Exi digital camera and analyzed with Image Pro-Plus 5.1 software.
Because the peptides would be used in radiation studies, the length of time the peptides remain in cells was determined to ensure that the peptides would be present throughout the DNA repair process after IR.

NBS1 binding to MRE11 = molecular target: T1, NBS1 binding to MRE11 (Homo sapiens, UniProt P49959); assay: Co-immunoprecipitation of MRE11 with NBS1 in peptide-treated cells; format: cell-based; conditions: HeLa cells, four hours after peptide treatment
T1 construct: endogenous in cells; host or cells: HeLa
T1 sequence (P49959 1-708): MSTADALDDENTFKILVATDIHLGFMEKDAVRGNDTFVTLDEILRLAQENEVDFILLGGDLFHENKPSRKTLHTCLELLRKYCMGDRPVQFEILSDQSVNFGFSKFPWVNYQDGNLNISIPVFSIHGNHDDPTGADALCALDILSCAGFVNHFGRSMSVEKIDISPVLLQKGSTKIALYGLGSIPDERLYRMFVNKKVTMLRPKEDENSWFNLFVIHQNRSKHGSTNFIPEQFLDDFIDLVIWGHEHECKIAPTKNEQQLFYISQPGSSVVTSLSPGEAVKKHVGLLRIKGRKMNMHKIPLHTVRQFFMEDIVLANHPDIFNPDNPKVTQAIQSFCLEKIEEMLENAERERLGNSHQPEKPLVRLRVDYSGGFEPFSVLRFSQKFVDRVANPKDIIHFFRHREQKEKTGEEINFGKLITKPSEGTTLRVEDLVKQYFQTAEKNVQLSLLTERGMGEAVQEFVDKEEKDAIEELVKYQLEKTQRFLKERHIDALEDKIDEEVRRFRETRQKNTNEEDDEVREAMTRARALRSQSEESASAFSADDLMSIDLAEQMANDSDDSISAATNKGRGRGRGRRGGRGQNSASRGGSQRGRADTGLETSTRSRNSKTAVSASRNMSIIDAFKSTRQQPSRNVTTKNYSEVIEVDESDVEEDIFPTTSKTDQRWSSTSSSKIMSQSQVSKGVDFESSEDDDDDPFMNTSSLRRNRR
Method: HeLa cells treated with the NIP peptides were irradiated (0 or 6Gy). Immunoprecipitation was performed with a rabbit NBS1 antibody, and Western blotting was performed with monoclonal antibodies against ATM, NBS1 or MRE11.
Immunoprecipitation and Western blotting: For co-immunoprecipitation of ATM, NBS1 and MRE11, cells were lysed 1 hour in ice-cold lysis buffer, which consisted of 10 mM Tris-HCl (pH 7.5), 100 mM NaCl, 5 mM EDTA, 0.5% NP-40, 5 mM Na3VO4, 1 mM NaF, and 1 mM PMSF. After centrifugation, supernatants were incubated with indicated antibodies. After extensive washing with the lysis buffer, immunoprecipitates were analyzed by immunoblot using specific antibodies. For western blotting analysis, samples (cell lysates or immunoprecipitates) were separated on 4-12% SDS-poly-acrylamide gels, transferred to nitrocellulose membranes, and probed with various antibodies.
wtNIP Abrogated the NBS1-ATM Interaction: To investigate whether R9-conjugated NIP peptides could inhibit NBS1-ATM interactions, coimmunoprecipitation experiments were performed in cells treated with the NIP peptides. Four hours after peptide treatment, HeLa cells were harvested and subjected to immunoprecipitation using an anti-NBS1 antibody. The immunoprecipitates were then blotted with anti-ATM, NBS1, and MRE11 antibodies.

Structure (SMILES): CC(C)C[C@H](NC(=O)[C@H](CC(=O)O)NC(=O)[C@H](CC(=O)O)NC(=O)[C@H](C)NC(=O)[C@H](CC(C)C)NC(=O)[C@H](CO)NC(=O)[C@H](CCC(=O)O)NC(=O)[C@H](CCC(=O)O)NC(=O)[C@H](CCCCN)NC(=O)[C@H](CCCNC(=N)N)NC(=O)[C@H](CCCNC(=N)N)NC(=O)[C@H](CCCNC(=N)N)NC(=O)[C@H](CCCNC(=N)N)NC(=O)[C@H](CCCNC(=N)N)NC(=O)[C@H](CCCNC(=N)N)NC(=O)[C@H](CCCNC(=N)N)NC(=O)[C@H](CCCNC(=N)N)NC(=O)[C@H](CCCNC(=N)N)NC(=O)CCCC[C@@H]1SC[C@@H]2NC(=O)N[C@@H]21)C(=O)O [wtNIP] (Biotin-RRRRRRRRRKEESLADDL-OH)
- SER [1]: 1.46
- presence of peptides in cells (HeLa cells): strong distribution
- NBS1 binding to MRE11 (NBS1 binding to MRE11): did not interfere with NBS1 binding to MRE11
